The target of one experiment is T1, FKBP protein (Homo sapiens, UniProt P62942).
T1 construct: fluorescent protein (mRFP); ferritin (FT); expressed in transfected cells; host or cells: HeLa
The experiment can be described thus: Formation of nano-assembly matrices of FKBP (wild type)-ferritin by AP1510 in Hela cells. Conditions: 1 μM AP1510. In kind it is cell-based. The source says: In this experiment, a FKBP (wild type) protein was used as a material for inducing the formation of nano-assembly matrices, while an AP1510 compound was used as a material for mediating the binding between FKBP proteins. The AP1510 compound is a FK506-like compound and is a mediator (regulator) material, which has two moieties capable of binding to the FKBP protein, linked with each other by a linker, such that it can interact simultaneously with two molecules of the FKBP protein.
Two FKBP (wild type) proteins were continuously fused to ferritin and expressed in Hela cells. The cells were treated with 1 μM of the AP1510 compound, which is an FKBP interaction mediator (regulator) material, and the formation of nano-assembly matrices within 1 hour was observed through In-Cell Analyzer 1000 (GE) (FIG. 35). After the formation of the nano-assembly matrices was induced for 3 hours, the cells were treated with 250 nM of Rapamycin for 1 hour.
For the case where mRFP was attached to the FKBP protein in Example 7, various fluorescent proteins, such as ECFP, TagCFP and mTFP1, were attached to the FKBP protein to examine the effect of the AP1510 compound on the induction of formation of nano-assembly matrices.
FKBP was fused to the ferritin protein, and the three different fluorescent proteins were attached between FKBP and ferritin, and then expressed in Hela cells. […]

Another experiment relates to IkBα and IKKb. The experiment can be described thus: Formation of nano-assembly matrix by IKKb-IkBα interaction on physiological signal in Hela cells. It is filed as cell-based. Conditions: TNFa treatment; FRB-ECFP-FT, IKKb-mRFP-FKBP and IkBα-YFP-FKBP. An excerpt:
In another example, IKKb-IkBα proteins were used as prey-bait, and TNFa was used as a material for mediating (regulating) the interaction between them. The IkBα and IKKb proteins interact with each other, only when a physiological external signal of TNFa is transferred to cells. The interaction between phosphorylase (such as IKKb) and IkBα that is the substrate thereof is known as one of the weakest interactions in cells. The recombinant genes FRB-ECFP-FT, IKKb-mRFP-FKBP and IkBα-YFP-FKBP were introduced together into Hela cells, and each of the fusion proteins was expressed in the cells.

The record followed here is patent US9164090B2, “Methods for detecting molecular interactions” (Korea Advanced Institute of Science and Technology, priority 2007, dated 2015).

T1 sequence (P62942 whole entry): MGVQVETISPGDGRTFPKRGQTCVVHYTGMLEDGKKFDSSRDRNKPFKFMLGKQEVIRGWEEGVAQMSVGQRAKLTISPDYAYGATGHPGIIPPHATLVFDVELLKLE

In the case of `CCC(C)(C)C(=O)C(=O)N1CCCC[C@H]1C(=O)O[C@H](CCc1ccc(OC)c(OC)c1)c1cccc(OCC(=O)NCCNC(=O)COc2cccc([C@@H](CCc3ccc(OC)c(OC)c3)OC(=O)[C@@H]3CCCCN3C(=O)C(=O)C(C)(C)CC)c2)c1` [AP1510], at FKBP protein (ECFP, TagCFP or mTFP1 between FKBP and ferritin), the “induction of formation of nano-assembly matrices depending on fluorescent protein” value was “induced more effectively in the case of TagCFP-mTFP1 and mTFP1 than the case of ECFP”. The “time to formation of nano-assembly matrices” value on FKBP protein (two FKBP (wild type) fused to ferritin) was at most 1 h.
With TNFa, the “formation of nano-assembly matrix” value with IkBα and IKKb is given as “a large nano-assembly matrix was formed in cells”.
